# In patent EP0555537B1, “Endothelin antagonists” (BANYU PHARMACEUTICAL CO., LTD., priority 1991, dated 1993):
# Numbered stars: 1 amine (or outer) side, 2 acyl side, 3 side chain; on linkers, the order of the positions; unused ones are H or OH. Square brackets hold non-standard residues; d marks the D form. Peptide text beside a SMILES is read from it. * marks the point of attachment. dNle = CCCC[C@@H](N)C(=O)O; Piperidide = C1CCN(*)CC1; Pyrrolidide = C1CCN(*)C1; dAbu = CC[C@@H](N)C(=O)O; Boc = CC(C)(C)OC(=O)*; CO = O=C([*:1])[*:2]; NHtBu = CC(C)(C)N*; Moc = COC(=O)*
# Biological target: T1, ETB receptor (Sus scrofa, UniProt P35463)
# T1 construct: ETB receptors of porcine cerebellum membrane suspension used in the present experiments; from tissue; host or cells: porcine cerebellum membrane fraction
# T1 sequence (P35463 27-443): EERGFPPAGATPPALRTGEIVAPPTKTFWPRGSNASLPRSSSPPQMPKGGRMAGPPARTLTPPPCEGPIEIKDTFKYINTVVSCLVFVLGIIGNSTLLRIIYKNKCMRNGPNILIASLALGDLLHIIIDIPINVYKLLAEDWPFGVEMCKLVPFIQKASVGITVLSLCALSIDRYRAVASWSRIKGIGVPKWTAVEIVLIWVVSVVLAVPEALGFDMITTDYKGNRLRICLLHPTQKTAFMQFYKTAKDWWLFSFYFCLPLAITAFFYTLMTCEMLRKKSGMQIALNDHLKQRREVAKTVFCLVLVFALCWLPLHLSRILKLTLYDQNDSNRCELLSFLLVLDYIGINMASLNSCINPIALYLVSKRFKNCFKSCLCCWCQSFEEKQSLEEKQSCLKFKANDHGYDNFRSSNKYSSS
# Assay: Endothelin binding inhibition test (^125I-endothelin-1, porcine cerebellum membrane suspension)
# Conditions: 1.1 µM of the test compound, triplicate
# Experimental: The cerebellum of porcine was homogenized in a buffer solution of 10 mM MOPS, pH 7.4, at 4°C by a polytron. To the homogenate, sucrose was added to a concentration of 20%, and the mixture was centrifuged at 1,000 x g for 15 minutes, and the supernatant was further centrifuged at 10,000 x g for 15 minutes. The supernatant thereof was further centrifuged at 90,000 x g for 40 minutes. The membrane precipitate thereby obtained was suspended in a buffer solution of 5 mM HEPES/Tris, pH 7.4, at a concentration of 3.3 mg/ml.
# Then, 16 µl of this membrane suspension was added to 340 µl of 50 mM tris/HCl buffer, pH 7.4, containing […] calcium chloride, 10 µM magnesium chloride, 0.1 mM PMSF, 1 µM pepstatin A, 2 µM leupeptin, 1 mM 1,10-phenanthroline and 0.1% bovine serum albumin. To this suspension, 4 µl of (A) endothelin-1 (for nonspecific binding; 0.2 µM as the final concentration), (B) buffer solution A (for total control binding), or (C) a test compound (1.1 µM as the final concentration), was added. Further, to each suspension, 40 µl of ^125I-endothelin-1 (12000-18000 cpm) was added. These mixtures were incubated at 25°C for 4 hours, then subjected to filtration on a glass filter GF/C and then washed with 5 mM HEPES/Tris, pH 7.4, containing 0.3% bovine serum albumin. Then, the radioactivity trapped by the glass filter was measured, and the ^125I-endothelin-1 binding inhibition D (%) at 1.1 µM of the test compound was determined by the following equation. D(%) = 100 -((C) - (A))/((B) - (A))× 100 [formula]
# Each test was performed in triplicate.
# The test compounds are indicated by compound Nos.
row,inhibition at 1.1 µM,SMILES
1,97%,CCCC[C@@H](NC(=O)[C@@H](Cc1c(Cl)[nH]c2ccccc12)NC(=O)[C@H](CC(C)C)NC(=O)N1C(C)CCCC1C)C(=O)O (some centres unmarked) [Compound 67]
2,93%,CCCC[C@@H](NC(=O)[C@@H](Cc1c(Cl)[nH]c2ccccc12)NC(=O)[C@H](CC(C)C)NC(=O)N1CCCCCC1)C(=O)O [Compound 68]
3,92%,CCCC[C@@H](NC(=O)[C@@H](Cc1cn(C(=O)OC)c2ccccc12)NC(=O)[C@H](CC(C)C)NC(=O)N1CCCCCCC1)C(=O)OC(C)(C)C [Compound 28]
4,99%,CCCC[C@@H](NC(=O)[C@@H](Cc1cn(C(=O)OC)c2ccccc12)NC(=O)[C@H](CC(C)C)NC(=O)N1CCCCCC1)C(=O)O [Compound 9]
5,99%,CCCC[C@@H](NC(=O)[C@@H](Cc1cn(C(=O)OC)c2ccccc12)NC(=O)[C@H](CC(C)C)NC(=O)N(C(C)C)C(C)C)C(=O)O [Compound 14]
6,71%,CC[C@@H](NC(=O)[C@@H](Cc1cn(C(=O)OC)c2ccccc12)NC(=O)[C@H](CC(C)C)NC(=O)OC(C)(C)C)C(=O)O [Compound 26] (Boc-Leu-[dW](Moc)-[dAbu]-OH)
7,97%,CCCC[C@@H](NC(=O)[C@@H](Cc1cn(C(=O)OC)c2ccccc12)NC(=O)[C@H](CC(C)C)NC(=O)NC12CC3CC(CC(C3)C1)C2)C(=O)O [Compound 25]
8,89%,CCCC[C@@H](NC(=O)[C@@H](Cc1cn(C(=O)OC)c2ccccc12)NC(=O)[C@H](CC(C)C)NC(=O)N1CCSCC1)C(=O)O [Compound 10]
9,97%,CCCC[C@@H](NC(=O)[C@@H](Cc1cn(C(=O)OCC)c2ccccc12)NC(=O)[C@H](CC(C)C)NC(=O)Nc1ccccc1Cl)C(=O)O [Compound 2]
10,99%,CCCC[C@@H](NC(=O)[C@@H](Cc1cn(C(=O)OC)c2ccccc12)NC(=O)[C@H](CC(C)C)NC(=O)N1CCCCCCC1)C(=O)O [Compound 29]
11,72%,CCCC[C@@H](NC(=O)[C@@H](Cc1cn(C(=O)OC)c2ccccc12)NC(=O)[C@H](CC(C)C)NC(=O)N1CCSC1)C(=O)O [Compound 13]
12,99%,CCCC[C@@H](NC(=O)[C@@H](Cc1cn(C(=O)OC)c2ccccc12)NC(=O)[C@H](CC(C)C)NC(=O)Nc1ccccc1Cl)C(=O)O [Compound 1]
13,95%,CCCC[C@@H](NC(=O)[C@@H](Cc1cn(C(=O)OC)c2ccccc12)NC(=O)[C@H](CC(C)C)NC(=O)N(CCC)C1CCCC1)C(=O)O [Compound 17]
14,96%,CCCC[C@@H](NC(=O)[C@@H](Cc1cn(C(=O)OC)c2ccccc12)NC(=O)[C@H](CC(C)C)NC(=O)N1CCCCC1)C(=O)O [Compound 12] ({Piperidide-CO}-Leu-[dW](Moc)-[dNle]-OH)
15,91%,CCCC[C@@H](NC(=O)[C@@H](Cc1cn(C(=O)OC)c2ccccc12)NC(=O)[C@H](CC(C)C)NC(=O)NC(C)(C)C)C(=O)O [Compound 27] ({NHtBu-CO}-Leu-[dW](Moc)-[dNle]-OH)
16,73%,CCCC[C@@H](NC(=O)[C@@H](Cc1cn(C(=O)OC)c2ccccc12)NC(=O)[C@H](CC(C)C)NC(=O)N1CCCC1)C(=O)O [Compound 11] ({Pyrrolidide-CO}-Leu-[dW](Moc)-[dNle]-OH)
17,94%,CCCC[C@@H](NC(=O)[C@@H](Cc1cn(C(=O)OC)c2ccccc12)NC(=O)[C@H](CC(C)C)NC(=O)Nc1c(Cl)cccc1Cl)C(=O)O [Compound 3]
